The values that follow come from patent publication US10392366B2, “Azetidine compounds as GPR119 modulators for the treatment of diabetes, obesity, dyslipidemia and related disorders” (SANOFI, priority 2017, dated 2019).

This experiment concerns the target T1, human GPR119 (Homo sapiens, UniProt Q8TDV5).
T1 construct: expressed in transfected cells
T1 sequence (Q8TDV5 1-335): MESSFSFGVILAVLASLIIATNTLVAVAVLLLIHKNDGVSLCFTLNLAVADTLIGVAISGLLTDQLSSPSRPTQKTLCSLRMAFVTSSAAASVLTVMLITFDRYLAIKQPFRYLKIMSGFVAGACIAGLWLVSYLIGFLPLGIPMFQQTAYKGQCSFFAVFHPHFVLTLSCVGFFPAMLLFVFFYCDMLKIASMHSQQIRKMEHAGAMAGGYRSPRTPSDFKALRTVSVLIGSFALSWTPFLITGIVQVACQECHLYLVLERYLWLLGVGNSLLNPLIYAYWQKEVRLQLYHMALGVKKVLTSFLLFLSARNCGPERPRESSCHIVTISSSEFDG
Nature of the experiment: Functional cellular assay measuring GPR119-mediated cAMP release (HTRF) in HEK-293 cells stably expressing recombinant GPR119. It counts as cell-based. Particulars: cell line expressing human GPR119, 30 minutes at room temperature. As to the method:
Functional Cellular Assays Measuring GPR119-mediated cAMP Release
Compounds of the present disclosure, which are agonists of GPR119, were characterized by functional assays measuring the cAMP response of HEK-293 cell lines stably expressing recombinant GPR119 from man, mouse or rat, or by using the hamster cell line HIT-T15 expressing GPR119 endogenously. The cAMP content was determined using a kit based on homogenous time-resolved fluorescence (HTRF) from Cisbio Corp. (cat. no. 62AM4PEC). For preparation, cells were split into T175 culture flasks and grown to near confluency in medium (DMEM/10% FCS for HEK-293 cells, and F-12K medium/10% horse serum/2.5% FCS for HIT-T15 cells, respectively). Medium was then removed and cells washed with PBS lacking calcium and magnesium ions, followed by proteinase treatment with accutase (Sigma-Aldrich, cat. no. A6964). Detached cells were washed and resuspended in assay buffer (1×HBSS; 20 mM HEPES, 0.1% BSA, 2 mM IBMX) and cellular density determined. They were then diluted to 400000 cells/mL and 25 μL-aliquots dispensed to the wells of 96-well plates. For measurement, 25 μL of test compound in assay buffer was added and incubated for 30 minutes at room temperature. After addition of HTRF reagents diluted in lysis buffer, the plates were incubated for 1 hour, followed by measuring the fluorescence ratio at 665 vs. 620 nm. Potency of the agonists was quantified by determining the concentrations that caused 50% of the maximal response/activation (EC50). See Table 6 for exemplary data obtained using the cell line expressing human GPR119.

Consider `COC(=O)C1CN(c2ccc(N3CC[C@@H](Oc4ccc(OCC(F)(F)F)nc4)C3=O)cn2)C1` [Compound 1-52], for which the EC50 was found to be 12 nM. The figure for `CN(C)C(=O)C1CN(c2ncc(N3CC[C@@H](Oc4ccc(OCC(F)(F)F)cc4)C3=O)cn2)C1` [Compound 1-53] is 351 nM; for `CN(C)C(=O)CC1CN(c2ncc(N3CC[C@@H](Oc4ccc(OCC(F)(F)F)nc4)C3=O)cn2)C1` [Compound 1-54] it is 1660 nM. As for `CN(C)C(=O)C1CN(c2ncc(N3CC[C@@H](Oc4ccc(C(=O)C5CC5)cc4)C3=O)cn2)C1` [Compound 2-01], the figure is 218 nM; as for `CN(C)C(=O)C1CN(c2ncc(N3CC[C@@H](Oc4ccc(C(=O)c5ccc(F)cc5)cc4)C3=O)cn2)C1` [Compound 2-02], 137 nM; as for `CN(C)C(=O)C1CN(c2ncc(N3CC[C@@H](Oc4ccc(-c5nccs5)cc4)C3=O)cn2)C1` [Compound 2-03], 324 nM. As for `CN(C)C(=O)C1CN(c2ncc(N3CC[C@@H](Oc4ccc(C(=O)C5CC5)nc4)C3=O)cn2)C1` [Compound 2-04], the figure is 926 nM; as for `Cc1cnc(-c2ccc(O[C@@H]3CCN(c4cnc(N5CC(C(=O)N(C)C)C5)nc4)C3=O)cn2)s1` [Compound 2-05], 116 nM.

In the case of `CN(C)C(=O)C1CN(c2ncc(N3CC[C@@H](Oc4ccc(C(=O)c5ccc(F)cc5)nc4)C3=O)cn2)C1` [Compound 2-06], the EC50 worked out at 145 nM.

Take `CN(C)C(=O)C1CN(c2ncc(N3CC[C@@H](Oc4ccc(C(=O)C5CC5)c(F)c4)C3=O)cn2)C1` [Compound 2-07]: the EC50 amounted to 128 nM. Regarding `CN(C)C(=O)C1CN(c2ncc(N3CC[C@@H](Oc4ccc(C(=O)C5CC(F)(F)C5)cc4)C3=O)cn2)C1` [Compound 2-08], the EC50 stood at 223 nM. As for `CN(C)C(=O)C1CN(c2ncc(N3CC[C@@H](Oc4ccc(C(=O)CCC(F)(F)F)cc4)C3=O)cn2)C1` [Compound 2-09], the figure is 123 nM; as for `CN(C)C(=O)C1CN(c2ncc(N3CC[C@@H](Oc4ccc(C(=O)C5CC5(F)F)cc4)C3=O)cn2)C1` (stereo partly shown) [Compound 2-10], 213 nM; as for `CN(C)C(=O)C1CN(c2ncc(N3CC[C@@H](Oc4ccc(C(=O)C5CC(F)(F)C5)nc4)C3=O)cn2)C1` [Compound 2-11], 470 nM. As for `O=C(O)C1CN(c2ncc(N3CC[C@@H](Oc4ccc(OCC5CC5)nc4)C3=O)cn2)C1` [Compound 3-01], the figure is 4920 nM.

As for `O=C(O)C1CN(c2ccc(N3CC[C@@H](Oc4ccc(OCC(F)(F)F)nc4)C3=O)cn2)C1` [Compound 3-02], the EC50 worked out at 391 nM. `O=C(O)C1CN(c2ccc(N3CC[C@@H](Oc4ccc(OCC5CC5)nc4)C3=O)cn2)C1` [Compound 3-03]: the EC50 turned out to be 6050 nM.

For the compound `O=C(O)C1CN(c2ncc(N3CC[C@@H](Oc4ccc(OCC(F)(F)F)nc4)C3=O)cn2)C1` [Compound 3-04], the EC50 was 9160 nM. As for `CNC(=O)C1CN(c2ncc(N3CC[C@@H](Oc4ccc(Oc5ccc(F)cc5)nc4)C3=O)cn2)C1` [Compound 4-01], the EC50 came out at 2060 nM. For `NC(=O)CNC(=O)C1CN(c2ncc(N3CC[C@@H](Oc4ccc(Oc5ccc(F)cc5)nc4)C3=O)cn2)C1` [Compound 4-02], the EC50 is 6710 nM. The figure for `CCNC(=O)C1CN(c2ncc(N3CC[C@@H](Oc4ccc(Oc5ccc(F)cc5)nc4)C3=O)cn2)C1` [Compound 4-03] is 4040 nM; for `NC(=O)C1CN(c2ncc(N3CC[C@@H](Oc4ccc(Oc5ccc(F)cc5)nc4)C3=O)cn2)C1` [Compound 4-04] it is 5880 nM. On to `CC(C)NC(=O)C1CN(c2ncc(N3CC[C@@H](Oc4ccc(Oc5ccc(F)cc5)nc4)C3=O)cn2)C1` [Compound 4-05], for which the EC50 stood at 1680 nM. Consider `O=C(C1CN(c2ncc(N3CC[C@@H](Oc4ccc(Oc5ccc(F)cc5)nc4)C3=O)cn2)C1)N1CCC(O)CC1` [Compound 4-06], for which the EC50 is 665 nM.

Turning to `CCN(CC)C(=O)C1CN(c2ncc(N3CC[C@@H](Oc4ccc(Oc5ccc(F)cc5)nc4)C3=O)cn2)C1` [Compound 4-07], the EC50 stood at 283 nM.
